This test deals with TNFα (Homo sapiens (Human), UniProt P01375). Description: TNF induced HEK-Blue assay. The following applies: TNFα 0.5 ng/ml; HEK-Blue-CD40L cells, NF-κB-driven secreted alkaline phosphatase reporter; 18 h. Type of test: cell-based. As to the method: Test compounds serially diluted in DMSO were plated in an assay plate (Labcyte, Cat. #LP-0200) at final concentrations ranging from 0.004 μM to 25 μM. TNFα (final concentration 0.5 ng/ml) or CD40L (final concentration 30 ng/ml) in assay buffer [DMEM, 4.5 g/l glucose (Gibco, Cat. 21063-029), 10% FBS (Sigma, F4135), 1% Penicillin-Streptomycin (Gibco, Cat. 15140-122), 1% Anti-Anti (Gibco, Cat. 15240-112) and 2 mM L-glutamine (Gibco, Cat. 25030-081)] was then added to the assay plate. After a 30 minute pre-incubation at 37° C. and 5% CO2, HEK-Blue-CD40L cells (InvivoGen, Cat. Code hkb-cd40) containing a NF-κB-driven secreted alkaline phosphatase reporter gene were seeded into the assay plate at a density of 20,000 cells per well. This plate was then incubated for 18 h at 37° C. and 5% CO2. Secreted alkaline phosphatase expression was measured using QUANTI-Blue (InvivoGen, Cat. Code rep-qb1) according to manufacturer's specifications and the assay plate was read on a PerkinElmer Envision at 620 nm.
Sequence of TNFα (P01375 77-233): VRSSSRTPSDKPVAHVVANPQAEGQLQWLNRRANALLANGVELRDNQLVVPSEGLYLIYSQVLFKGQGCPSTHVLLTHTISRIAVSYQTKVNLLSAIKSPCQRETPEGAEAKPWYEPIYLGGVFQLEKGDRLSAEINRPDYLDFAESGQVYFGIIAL
Inhibition data for the test compound over a range of concentrations was plotted as percentage inhibition of the test compound (100%=maximum inhibition). IC50 values were determined after correcting for background [(sample read−mean of low control)/(mean of high control−mean of low control)] where by the low control is DMSO without stimulation and high control is DMSO with stimulation. The IC50 is defined as the concentration of test compound which produces 50% inhibition and was quantified using the 4 parameter logistic equation to fit the data.
Table 5 lists the IC50 values measured in the TNF induced HEK-Blue assay for Examples 1 to 40 of this invention.
`CC(C)(O)c1ccc(-c2ccc3nc4n(c3n2)C(c2ccccc2C(F)(F)F)CC4)cc1` (racemic) [Example 25 (rac), 2-(4-(8-(2-(Trifluoromethyl)phenyl)-7,8-dihydro-6H-pyrrolo[2′,1′:2,3]imidazo[4,5-b]pyridin-2-yl)phenyl)propan-2-ol]: the IC50 was < 1 µM. The same measure for `CC(C)(O)c1ccc(-c2ccc3nc4n(c3n2)C(c2ccccc2OC(F)F)CC4)cc1` (racemic) [Example 26 (rac), 2-(4-(8-(2-(difluoromethoxy)phenyl)-7,8-dihydro-6H-pyrrolo[2′,1′:2,3]imidazo[4,5-b]pyridin-2-yl)phenyl)propan-2-ol]: < 1 µM; for `CC(C)(O)c1ncc(-c2ccc3nc4n(c3n2)C(c2ccccc2OC(F)F)CC4)cn1` (racemic) [Example 27 (rac), 2-(5-(8-(2-(difluoromethoxy)phenyl)-7,8-dihydro-6H-pyrrolo[2′,1′:2,3]imidazo[4,5-b]pyridin-2-yl)pyrimidin-2-yl)propan-2-ol]: < 1 µM; for `FC(F)Oc1ccccc1C1CCc2nc3ccc(-c4cnc(N5CCOCC5)nc4)nc3n21` (racemic) [Example 28 (rac), 4-(5-(8-(2-(difluoromethoxy)phenyl)-7,8-dihydro-6H-pyrrolo[2′,1′:2,3]imidazo[4,5-b]pyridin-2-yl)pyrimidin-2-yl)morpholine]: < 1 µM. The result for `COc1ccc(-c2ccc3nc4n(c3n2)C(c2ccccc2OC(F)F)CC4)cn1` (racemic) [Example 29 (rac), 8-(2-(difluoromethoxy)phenyl)-2-(6-methoxypyridin-3-yl)-7,8-dihydro-6H-pyrrolo[2′,1′:2,3]imidazo[4,5-b]pyridine] reads 1 to 10 µM; that for `Cn1cc(-c2ccc3nc4n(c3n2)C(c2ccccc2OC(F)F)CC4)cn1` (racemic) [Example 30 (rac), 8-(2-(difluoromethoxy)phenyl)-2-(1-methyl-1H-pyrazol-4-yl)-7,8-dihydro-6H-pyrrolo[2′,1′:2,3]imidazo[4,5-b]pyridine], 1 to 10 µM. The same measure for `CC(C)(O)c1ccc(-c2ccc3nc4n(c3n2)C(c2c(F)cccc2C(F)(F)F)CC4)cc1` (racemic) [Example 32 (e2), 2-(4-(8-(2-fluoro-6-(trifluoromethyl)phenyl)-7,8-dihydro-6H-pyrrolo[2′,1′:2,3]imidazo[4,5-b]pyridin-2-yl)phenyl)propan-2-ol]: < 1 µM.

As for `CC(C)(O)c1ccc(-c2ccc3nc4n(c3n2)C(c2c(F)cccc2C(F)(F)F)CC4)cc1` (racemic) [Example 32 (rac), 2-(4-(8-(2-fluoro-6-(trifluoromethyl)phenyl)-7,8-dihydro-6H-pyrrolo[2′,1′:2,3]imidazo[4,5-b]pyridin-2-yl)phenyl)propan-2-ol], the IC50 is < 1 µM. With `CC(C)(O)c1ccc(-c2ccc3nc4n(c3n2)C(c2cc(F)ccc2C(F)(F)F)CC4)cc1` (racemic) [Example 34 (rac), 2-(4-(8-(5-fluoro-2-(trifluoromethyl)phenyl)-7,8-dihydro-6H-pyrrolo[2′,1′:2,3]imidazo[4,5-b]pyridin-2-yl)phenyl)propan-2-ol], the IC50 is < 1 µM. With `COc1ccccc1C1CCc2nc3ccc(-c4cnc(N5CCN(CC(=O)O)CC5)nc4)nc3n21` (racemic) [Example 35 (rac), 2-(4-(5-(8-(2-methoxyphenyl)-7,8-dihydro-6H-pyrrolo[2′,1′:2,3]imidazo[4,5-b]pyridin-2-yl)pyrimidin-2-yl)piperazin-1-yl)acetic acid], the IC50 lay in the range of 1 to 10 µM.

For `CC(C)(O)c1ccc(-c2ccc3nc4n(c3n2)C(c2ccccc2C(F)(F)F)CC4O)cc1` (single isomer, unassigned) [Example 1 (e1), 2-(4-(2-Hydroxypropan-2-yl)phenyl)-8-(2-(trifluoromethyl)phenyl)-7,8-dihydro-6H-pyrrolo[2′,1′:2,3]imidazo[4,5-b]pyridin-6-ol], the IC50 was < 1 µM. The same measure for `CC(C)(O)c1ccc(-c2ccc3nc4n(c3n2)C(c2ccccc2C(F)(F)F)CC4O)cc1` (single isomer, unassigned) [Example 1 (e2), 2-(4-(2-Hydroxypropan-2-yl)phenyl)-8-(2-(trifluoromethyl)phenyl)-7,8-dihydro-6H-pyrrolo[2′,1′:2,3]imidazo[4,5-b]pyridin-6-ol]: 1 to 10 µM; for `CC(C)(O)c1ccc(-c2ccc3nc4n(c3n2)C(c2ccccc2C(F)(F)F)CC4O)cc1` (single isomer, unassigned) [Example 1 (e3), 2-(4-(2-Hydroxypropan-2-yl)phenyl)-8-(2-(trifluoromethyl)phenyl)-7,8-dihydro-6H-pyrrolo[2′,1′:2,3]imidazo[4,5-b]pyridin-6-ol]: 1 to 10 µM; for `CC(C)(O)c1ccc(-c2ccc3nc4n(c3n2)C(c2ccccc2C(F)(F)F)CC4O)cc1` (single isomer, unassigned) [Example 1 (e4), 2-(4-(2-Hydroxypropan-2-yl)phenyl)-8-(2-(trifluoromethyl)phenyl)-7,8-dihydro-6H-pyrrolo[2′,1′:2,3]imidazo[4,5-b]pyridin-6-ol]: 1 to 10 µM. The same measure for `CC(C)(O)c1ccc(-c2ccc3nc4n(c3n2)C(c2ccccc2OC(F)F)CC4O)cc1` (single isomer, unassigned) [Example 2 (e1), 8-(2-(difluoromethoxy)phenyl)-2-(4-(2-hydroxypropan-2-yl)phenyl)-7,8-dihydro-6H-pyrrolo[2′,1′:2,3]imidazo[4,5-b]pyridin-6-ol]: < 1 µM. Take `CC(C)(O)c1ccc(-c2ccc3nc4n(c3n2)C(c2ccccc2OC(F)F)CC4O)cc1` (single isomer, unassigned) [Example 2 (e2), 8-(2-(difluoromethoxy)phenyl)-2-(4-(2-hydroxypropan-2-yl)phenyl)-7,8-dihydro-6H-pyrrolo[2′,1′:2,3]imidazo[4,5-b]pyridin-6-ol]: the IC50 lay within 1 to 10 µM. The result for `CC(C)(O)c1ccc(-c2ccc3nc4n(c3n2)C(c2ccccc2OC(F)F)CC4O)cc1` (single isomer, unassigned) [Example 2 (e3), 8-(2-(difluoromethoxy)phenyl)-2-(4-(2-hydroxypropan-2-yl)phenyl)-7,8-dihydro-6H-pyrrolo[2′,1′:2,3]imidazo[4,5-b]pyridin-6-ol] reads 1 to 10 µM; that for `CC(C)(O)c1ccc(-c2ccc3nc4n(c3n2)C(c2ccccc2OC(F)F)CC4O)cc1` (single isomer, unassigned) [Example 2 (e4), 8-(2-(difluoromethoxy)phenyl)-2-(4-(2-hydroxypropan-2-yl)phenyl)-7,8-dihydro-6H-pyrrolo[2′,1′:2,3]imidazo[4,5-b]pyridin-6-ol], 1 to 10 µM. The same measure for `CC(C)(O)c1ccc(-c2ccc3nc4n(c3n2)C(c2c(F)cccc2C(F)(F)F)CC4O)cc1` (single isomer, unassigned) [Example 3 (e1), 8-(2-fluoro-6-(trifluoromethyl)phenyl)-2-(4-(2-hydroxypropan-2-yl)phenyl)-7,8-dihydro-6H-pyrrolo[2′,1′:2,3]imidazo[4,5-b]pyridin-6-ol]: < 1 µM. The result for `CC(C)(O)c1ccc(-c2ccc3nc4n(c3n2)C(c2c(F)cccc2C(F)(F)F)CC4O)cc1` (single isomer, unassigned) [Example 3 (e2), 8-(2-fluoro-6-(trifluoromethyl)phenyl)-2-(4-(2-hydroxypropan-2-yl)phenyl)-7,8-dihydro-6H-pyrrolo[2′,1′:2,3]imidazo[4,5-b]pyridin-6-ol] reads < 1 µM. Turning to `CC(C)(O)c1ccc(-c2ccc3nc4n(c3n2)C(c2c(F)cccc2C(F)(F)F)CC4O)cc1` (single isomer, unassigned) [Example 3 (e3), 8-(2-fluoro-6-(trifluoromethyl)phenyl)-2-(4-(2-hydroxypropan-2-yl)phenyl)-7,8-dihydro-6H-pyrrolo[2′,1′:2,3]imidazo[4,5-b]pyridin-6-ol], the IC50 was < 1 µM. The result for `CC(C)(O)c1ccc(-c2ccc3nc4n(c3n2)C(c2ccccc2C2CC2)CC4O)cc1` (single isomer, unassigned) [Example 9 (e3), 8-(2-cyclopropylphenyl)-2-(4-(2-hydroxypropan-2-yl)phenyl)-7,8-dihydro-6H-pyrrolo[2′,1′:2,3]imidazo[4,5-b]pyridin-6-ol] reads 1 to 10 µM; that for `CC(C)(O)c1ccc(-c2ccc3nc4n(c3n2)C(c2ccccc2C2CC2)CC4O)cc1` (single isomer, unassigned) [Example 9 (e4), 8-(2-cyclopropylphenyl)-2-(4-(2-hydroxypropan-2-yl)phenyl)-7,8-dihydro-6H-pyrrolo[2′,1′:2,3]imidazo[4,5-b]pyridin-6-ol], 1 to 10 µM. The result for `COc1ccccc1C1CC(O)c2nc3ccc(-c4ccc(C(C)(C)O)cc4)nc3n21` (single isomer, unassigned) [Example 12 (e2), 2-(4-(2-hydroxypropan-2-yl)phenyl)-8-(2-methoxyphenyl)-7,8-dihydro-6H-pyrrolo[2′,1′:2,3]imidazo[4,5-b]pyridin-6-ol] reads 1 to 10 µM.

Values taken from patent US10189840B2, “Substituted tricyclic heterocyclic compounds” (BRISTOL-MYERS SQUIBB COMPANY, priority 2015, dated 2019).
